Experimental data: patent US20150274664A1 (MERCK SHARP & DOHME CORP., priority 2012, published 2015)
Where a chain is given by its changes, count along the chain named.

The compounds below were run against T1, human GPR119 (Homo sapiens, UniProt Q8TDV5) (assay: Measurement of GPR119 signaling using LANCE 384-well cAMP kit (LCMP assay)). Details: HEK293 cells stably transfected with human GPR119.
T1 construct: expressed in transfected cells; host or cells: HEK293
T1 sequence (Q8TDV5 1-335): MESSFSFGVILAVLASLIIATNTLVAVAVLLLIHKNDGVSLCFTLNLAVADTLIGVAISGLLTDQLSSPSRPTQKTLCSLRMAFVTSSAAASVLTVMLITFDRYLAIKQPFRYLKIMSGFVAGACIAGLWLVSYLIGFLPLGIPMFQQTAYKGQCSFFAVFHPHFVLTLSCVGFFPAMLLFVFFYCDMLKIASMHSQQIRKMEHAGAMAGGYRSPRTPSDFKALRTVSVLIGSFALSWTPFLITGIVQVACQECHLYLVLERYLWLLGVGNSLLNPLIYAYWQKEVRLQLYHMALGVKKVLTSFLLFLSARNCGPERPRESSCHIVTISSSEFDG
Format: cell-based
Procedure, shortened: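 HEK293 cells stably expressing human GPR119, in stimulation buffer at pH 7.4 with 100 μM phosphodiesterase inhibitors, exposed to a 10-point compound dilution (2.5% DMSO final) for 45 min. cAMP measured by LANCE TR-FRET at 665 nm against a cAMP standard curve, normalized between DMSO basal and an internal agonist maximum, with a 4-parameter fit.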

Row | SMILES | EC50
1 | CN(C)C(=O)Cc1c(F)cc(OCC[C@H]2C[C@@H]2C2CCN(C(=O)OC3(C)CC3)CC2)cc1F [Example 104, 1-methylcyclopropyl 4-((1R,2R)-2-(2-(4-(2-(dimethylamino)-2-oxoethyl)-3,5-difluorophenoxy)ethyl)cyclopropyl)piperidine-1-carboxylate] | 0.69 nM
2 | CC1(OC(=O)N2CCC([C@H]3C[C@@H]3CCOc3ccc(-n4cnnn4)cc3F)CC2)CC1 [Example 107, 1-methylcyclopropyl 4-((1R,2R)-2-(2-(2-fluoro-4-(1H-tetrazol-1-yl)phenoxy)ethyl)cyclopropyl)piperidine-1-carboxylate] | 17 nM
3 | CC1(OC(=O)N2CCC([C@@H]3C[C@H]3CCOc3ccc(CC(=O)N4CCC4)cc3F)CC2)CC1 [Example 108, 1-methylcyclopropyl 4-((1S,2S)-2-(2-(4-(2-(azetidin-1-yl)-2-oxoethyl)-2-fluorophenoxy)ethyl)cyclopropyl)piperidine-1-carboxylate] | 24 nM
4 | CC(C)c1noc(N2CCC([C@H]3C[C@@H]3CCOc3ccc(S(C)(=O)=O)cn3)CC2)n1 [Example 110, 3-isopropyl-5-(4-((1R,2R)-2-(2-(5-(methylsulfonyl)pyridin-2-yloxy)ethyl)cyclopropyl)piperidin-1-yl)-1,2,4-oxadiazole] | 18 nM
5 | CCS(=O)(=O)c1ccc(OCC[C@@H]2C[C@H]2C2CCN(c3nc(C(C)C)no3)CC2)nc1 [Example 111, 5-(4-((1S ,2S)-2-(2-((5-(ethylsulfonyl)pyridin-2-yl)oxy)ethyl)cyclopropyl)piperidin-1-yl)-3-isopropyl-1,2,4-oxadiazole] | 17 nM
6 | CCc1cnc(N2CCC([C@H]3C[C@@H]3CCOc3cc(F)cc(F)c3CC(=O)N(C)C)CC2)nc1 [Example 117, 2-(2-(2-((1R,2R)-2-(1-(5-ethylpyrimidin-2-yl)piperidin-4-yl)cyclopropyl)ethoxy)-4,6-difluorophenyl)-N,N-dimethylacetamide] | 12 nM
7 | CC1(OC(=O)N2CCC([C@@H]3C[C@H]3CCOc3ccc(CC(=O)N4CCC4)cn3)CC2)CC1 [Example 120, 1-methylcyclopropyl 4-((1S,2S)-2-(2-(5-(2-(azetidin-1-yl)-2-oxoethyl)pyridin-2-yloxy)ethyl)cyclopropyl)piperidine-1-carboxylate] | 21 nM
8 | CC(C)c1noc(N2CCC([C@@H]3C[C@H]3CCOc3ccc(CC(=O)N4CCC4)cn3)CC2)n1 [Example 121, 1-(azetidin-1-yl)-2-(6-(2-((1S,2S)-2-(1-(3-isopropyl-1,2,4-oxadiazol-5-yl)piperidin-4-yl)cyclopropyl)ethoxy)pyridin-3-yl)ethanone] | 24 nM
9 | Clc1cnc(N2CCC([C@H]3C[C@@H]3CCNc3ncc(-n4cnnn4)cn3)CC2)nc1 [Example 123, N-(2-((1R,2S)-2-(1-(5-chloropyrimidin-2-yl)piperidin-4-yl)cyclopropyl)ethyl)-5-(1H-tetrazol-1-yl)pyrimidin-2-amine] | 10 nM
10 | CCc1cnc(N2CCC([C@H]3C[C@@H]3CCNc3ncc(-n4cnnn4)cn3)CC2)nc1 [Example 125, N-(2-((1R,2S)-2-(1-(5-ethylpyrimidin-2-yl)piperidin-4-yl)cyclopropyl)ethyl)-5-(1H-tetrazol-1-yl)pyrimidin-2-amine] | 18 nM
11 | CC(C)c1noc(N2CCC([C@@H]3C[C@H]3CCNc3ncc(-n4cnnn4)cn3)CC2)n1 [Example 126, N-(2-((1S,2R)-2-(1-(3-isopropyl-1,2,4-oxadiazol-5-yl)piperidin-4-yl)cyclopropyl)ethyl)-5-(1H-tetrazol-1-yl)pyrimidin-2-amine] | 16 nM

Next, values leading:

Row | EC50 | SMILES
12 | 2.1 nM | CN(C)C(=O)Cc1c(F)cc(OCC[C@@H]2C[C@H]2C2CCN(C(=O)OC3(C)CC3)CC2)cc1F [Example 102, 1-methylcyclopropyl 4-((1S,2S)-2-(2-(4-(2-(dimethylamino)-2-oxoethyl)-3,5-difluorophenoxy)ethyl)cyclopropyl)piperidine-1-carboxylate]
13 | 0.7 nM | CC1(OC(=O)N2CCC([C@H]3C[C@@H]3CCOc3cc(F)c(CC(=O)N4CCC4)c(F)c3)CC2)CC1 [Example 103, 1-methylcyclopropyl 4-((1R,2R)-2-(2-(4-(2-(azetidin-1-yl)-2-oxoethyl)-3,5-difluorophenoxy)ethyl)cyclopropyl)piperidine-1-carboxylate]
14 | 15 nM | CC1(OC(=O)N2CCC([C@@H]3C[C@H]3CCOc3ccc(-n4cnnn4)c(F)c3)CC2)CC1 [Example 105, 1-methylcyclopropyl 4-((1S,2S)-2-(2-(3-fluoro-4-(1H-tetrazol-1-yl)phenoxy)ethyl)cyclopropyl)piperidine-1-carboxylate]
15 | 14 nM | CC1(OC(=O)N2CCC([C@H]3C[C@@H]3CCOc3ccc(-n4cnnn4)c(F)c3)CC2)CC1 [Example 106, 1-methylcyclopropyl 4-((1R,2R)-2-(2-(3-fluoro-4-(1H-tetrazol-1-yl)phenoxy)ethyl)cyclopropyl)piperidine-1-carboxylate]
16 | 22 nM | CS(=O)(=O)c1ccc(OCC[C@H]2C[C@@H]2C2CCN(c3ncc(Cl)cn3)CC2)nc1 [Example 109, 5-chloro-2-(4-((1R,2R)-2-(2-(5-(methylsulfonyl)pyridin-2-yloxy)ethyl)cyclopropyl)piperidin-1-yl)pyrimidine]
17 | 10 nM | CCc1cnc(N2CCC([C@H]3C[C@@H]3CCOc3ccc(CC(=O)N4CCC4)cn3)CC2)nc1 [Example 115, 1-(azetidin-1-yl)-2-(6-(2-((1R,2R)-2-(1-(5-ethylpyrimidin-2-yl)piperidin-4-yl)cyclopropyl)ethoxy)pyridin-3-yl)ethanone]
18 | 9.7 nM | CCc1cnc(N2CCC([C@@H]3C[C@H]3CCOc3ccc(CC(=O)N4CCC4)cn3)CC2)nc1 [Example 116, 1-(azetidin-1-yl)-2-(6-(2-((1S,2S)-2-(1-(5-ethylpyrimidin-2-yl)piperidin-4-yl)cyclopropyl)ethoxy)pyridin-3-yl)ethanone]
19 | 17 nM | CCc1cnc(N2CCC([C@@H]3C[C@H]3CCOc3cc(F)cc(F)c3CC(=O)N3CCC3)CC2)nc1 [Example 118, 1-(azetidin-1-yl)-2-(2-(2-((1S,2S)-2-(1-(5-ethylpyrimidin-2-yl)piperidin-4-yl)cyclopropyl)ethoxy)-4,6-difluorophenyl)ethanone]
20 | 17 nM | CCc1cnc(N2CCC([C@H]3C[C@@H]3CCOc3cc(F)cc(F)c3CC(=O)N3CCC3)CC2)nc1 [Example 119, 1-(azetidin-1-yl)-2-(2-(2-((1R,2R)-2-(1-(5-ethylpyrimidin-2-yl)piperidin-4-yl)cyclopropyl)ethoxy)-4,6-difluorophenyl)ethanone]
21 | 20 nM | CC(C)c1noc(N2CCC([C@H]3C[C@@H]3CCOc3cc(F)cc(F)c3CC(=O)N(C)C)CC2)n1 [Example 122, 2-(2,4-difluoro-6-(2-((1R,2R)-2-(1-(3-isopropyl-1,2,4-oxadiazol-5-yl)piperidin-4-yl)cyclopropyl)ethoxy)phenyl)-N,N-dimethylacetamide]

Each compound was assayed against T2, human SNP variant (S309L) of GPR119 (Homo sapiens, UniProt Q8TDV5, S309L) (assay: GPR119 signaling, cAMP homogenous time resolved fluorescence (HTRF) assay). Details: HEK293 Flp-In cells stably transfected with human GPR119 (S309L), HTRF kit.
T2 construct: expressed in transfected cells; host or cells: HEK293 Flp-In (Invitrogen)
T2 sequence (Q8TDV5 1-335 S309L): T1 sequence (Q8TDV5 1-335) with S309L
Format: cell-based
Description: Measurement of GPR119 Signaling Using a Cyclic AMP (cAMP) Homogenous Time Resolved Fluorescence (HTRF) Assay
Chinese hamster ovary (CHO) cell lines stably transfected with the permissive guanine nucleotide binding protein alpha 15 (Gals) and murine GPR119 were maintained in DMEM media containing FBS, penicillin-streptomycin, puromycin, and G418 (geneticin). Alternatively, human embryonic kidney (HEK)293 Flp-In cells (Invitrogen, Carlsbad, Calif.) were stably transfected with a human SNP variant (S309L) of GPR119 and maintained in DMEM media containing FBS, penicillin-streptomycin, and hygromycin. Agonist activation of the GPR119 receptor was measured in receptor transfected cells described above, treated with compounds of this invention, using a commercial homogenous time resolved fluorescence (HTRF) kit for measurement of cAMP (CisBio, Bedford, Mass.). The assay was performed in 96-well half-volume plates (murine) or 384-well plates (human) following the manufacturers instructions. Briefly, suspended cells were incubated with a dose titration of test compound at RT for 60 min, lysed, and incubated with HTRF reagents for an additional 60 min. The plate was read using an Envision multilabel reader (Perkin Elmer) adjusted to read time resolved fluorescence and the cAMP concentrations were extrapolated from a cAMP calibration curve. […] The concentration of test compound required to stimulate a half-maximal response (EC50), and efficacy as compared to an internal agonist control, was determined from a sigmoidal 4-parameter curve fit of the resulting plot of normalized activity versus compound concentration.

Row | EC50 | SMILES
22 | 3.8 nM | CS(=O)(=O)c1ccc(COC[C@H]2C[C@@H]2C2CCN(c3ncc(Cl)cn3)CC2)nc1 [Example 1, 5-chloro-2-(4-((1R,2S)-2-(((5-(methylsulfonyl)pyridin-2-yl)methoxy)methyl)cyclopropyl)piperidin-1-yl)pyrimidine]
23 | 1.2 nM | CS(=O)(=O)c1ccc(COC[C@H]2C[C@@H]2C2CCN(c3ncc(Cl)cn3)CC2)cc1 [Example 2, 5-chloro-2-(4-((1R,2S)-2-(((4-(methylsulfonyl)benzyl)oxy)methyl)cyclopropyl)piperidin-1-yl)pyrimidine]
24 | 0.73 nM | CCS(=O)(=O)c1ccc(COC[C@H]2C[C@@H]2C2CCN(c3ncc(Cl)cn3)CC2)cc1 [Example 3, 5-chloro-2-(4-((1R,2S)-2-(((4-(ethylsulfonyl)benzyl)oxy)methyl)cyclopropyl)piperidin-1-yl)pyrimidine]
